# Experimental data as given in PubChem BioAssay (NCI).
#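 Five compound concentrations were applied to cells in 96-well plates for 48 hours; endpoints were derived by simple linear interpolation of the resulting dose-response curve. GI50: concentration for 50% inhibition of growth. At the TGI there is no net growth.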
# What was measured:
# Test in all cases: growth of human tumour cells (NCI), 48 h
# [1] = tested on: 786-0 renal
# [2] = tested on: A498 renal
# [3] = tested on: A549 NSCLC
# [4] = tested on: ACHN renal
# [5] = tested on: BT-549 breast
# [6] = tested on: CAKI-1 renal
# [7] = tested on: CCRF-CEM leukemia
# [8] = tested on: COLO 205 colon
# [9] = tested on: DU-145 prostate
# [10] = tested on: EKVX NSCLC
# [11] = tested on: HCT-116 colon
# [12] = tested on: HCT-15 colon
# [13] = tested on: HL-60(TB) leukemia
# [14] = tested on: HOP-62 NSCLC
# [15] = tested on: HOP-92 NSCLC
# [16] = tested on: HS 578T breast
# [17] = tested on: IGROV1 ovarian
# [18] = tested on: K-562 leukemia
# [19] = tested on: KM12 colon
# [20] = tested on: LOX IMVI melanoma
# [21] = tested on: M14 melanoma
# [22] = tested on: MALME-3M melanoma
# [23] = tested on: MCF7 breast
# [24] = tested on: MDA-MB-231 breast
# [25] = tested on: MDA-MB-435
# [26] = tested on: MOLT-4 leukemia
# [27] = tested on: NCI-H226 lung
# [28] = tested on: NCI-H23 lung
# [29] = tested on: NCI/ADR-RES ovarian
# [30] = tested on: OVCAR-3 ovarian
# [31] = tested on: OVCAR-4 ovarian
# [32] = tested on: OVCAR-5 ovarian
# [33] = tested on: OVCAR-8 ovarian
# [34] = tested on: PC-3 prostate
# [35] = tested on: RPMI-8226 leukemia
# [36] = tested on: RXF 393 renal
# [37] = tested on: SF-268 CNS
# [38] = tested on: SF-295 CNS
# [39] = tested on: SF-539 CNS
# [40] = tested on: SK-MEL-2 melanoma
# [41] = tested on: SK-MEL-28 melanoma
# [42] = tested on: SK-MEL-5 melanoma
# [43] = tested on: SK-OV-3 ovarian
# [44] = tested on: SN12C renal
# [45] = tested on: SNB-19 CNS
# [46] = tested on: SNB-75 CNS
# [47] = tested on: T-47D breast
# [48] = tested on: TK-10 renal
# [49] = tested on: U251 CNS
# [50] = tested on: UACC-257 melanoma
# [51] = tested on: UACC-62 melanoma
# [52] = tested on: UO-31 renal
# [53] = tested on: HCC-2998 colon
# [54] = tested on: HT29 colon
# [55] = tested on: NCI-H460 lung
# [56] = tested on: NCI-H522 lung
# [57] = tested on: SR leukemia
# [58] = tested on: SW-620 colon
smiles,measurement,setting,value
O=[N+]([O-])c1cc([N+](=O)[O-])c(Cl)cc1Cl,GI50,[1],1.71 µM
same,TGI,[1],3.21 µM
same,GI50,[2],1.61 µM
same,TGI,[2],4.51 µM
same,GI50,[3],1.64 µM
same,TGI,[3],3.27 µM
same,GI50,[4],1.62 µM
same,TGI,[4],3.29 µM
same,GI50,[5],1.69 µM
same,TGI,[5],3.1 µM
same,GI50,[6],0.188 µM
same,TGI,[6],0.352 µM
same,GI50,[7],0.217 µM
same,TGI,[7],0.505 µM
same,GI50,[8],1.77 µM
same,TGI,[8],3.65 µM
same,GI50,[9],1.56 µM
same,TGI,[9],2.9 µM
same,GI50,[10],1.68 µM
same,TGI,[10],3.31 µM
same,GI50,[11],0.661 µM
same,TGI,[11],2.17 µM
same,GI50,[12],1.35 µM
same,TGI,[12],3.73 µM
same,GI50,[13],0.456 µM
same,TGI,[13],2.7 µM
same,GI50,[14],1.68 µM
same,TGI,[14],3.27 µM
same,GI50,[15],1.59 µM
same,TGI,[15],4.11 µM
same,GI50,[16],2.38 µM
same,TGI,[16],7.56 µM
same,GI50,[17],1.17 µM
same,TGI,[17],2.74 µM
same,GI50,[18],0.249 µM
same,TGI,[18],0.642 µM
same,GI50,[19],1.64 µM
same,TGI,[19],3.05 µM
same,GI50,[20],0.361 µM
same,TGI,[20],1.46 µM
same,GI50,[21],1.73 µM
same,TGI,[21],3.59 µM
same,GI50,[22],2.05 µM
same,TGI,[22],4.27 µM
same,GI50,[23],1.67 µM
same,TGI,[23],4.23 µM
same,GI50,[24],1.94 µM
same,TGI,[24],3.7 µM
same,GI50,[25],1.61 µM
same,TGI,[25],3.22 µM
same,GI50,[26],0.918 µM
same,TGI,[26],4.4 µM
same,GI50,[27],2.22 µM
same,TGI,[27],5.78 µM
same,GI50,[28],1.4 µM
same,TGI,[28],3 µM
same,GI50,[29],1.32 µM
same,TGI,[29],2.94 µM
same,GI50,[30],1.42 µM
same,TGI,[30],2.73 µM
same,GI50,[31],1.81 µM
same,TGI,[31],3.23 µM
same,GI50,[32],1.78 µM
same,TGI,[32],3.6 µM
same,GI50,[33],1.27 µM
same,TGI,[33],2.91 µM
same,GI50,[34],1.35 µM
same,TGI,[34],2.88 µM
same,GI50,[35],0.667 µM
same,TGI,[35],2.8 µM
same,GI50,[36],1.68 µM
same,TGI,[36],3.09 µM
same,GI50,[37],1.64 µM
same,TGI,[37],3.13 µM
same,GI50,[38],1.75 µM
same,TGI,[38],3.63 µM
same,GI50,[39],1.73 µM
same,TGI,[39],3.49 µM
same,GI50,[40],1.83 µM
same,TGI,[40],3.44 µM
same,GI50,[41],1.74 µM
same,TGI,[41],3.24 µM
same,GI50,[42],1.79 µM
same,TGI,[42],3.68 µM
same,GI50,[43],1.78 µM
same,TGI,[43],3.21 µM
same,GI50,[44],1.76 µM
same,TGI,[44],3.55 µM
same,GI50,[45],1.95 µM
same,TGI,[45],3.66 µM
same,GI50,[46],1.51 µM
same,TGI,[46],2.92 µM
same,GI50,[47],1.71 µM
same,TGI,[47],4.42 µM
same,GI50,[48],1.65 µM
same,TGI,[48],3.16 µM
same,GI50,[49],0.211 µM
same,TGI,[49],0.476 µM
same,GI50,[50],0.594 µM
same,TGI,[50],2.04 µM
same,GI50,[51],1.88 µM
same,TGI,[51],3.82 µM
same,GI50,[52],0.34 µM
same,TGI,[52],1.48 µM
CN(CCC(=O)/C(=C\c1ccccc1)c1ccc(Cl)cc1)Cc1ccccc1,GI50,[1],2.03 µM
same,TGI,[1],4.1 µM
same,GI50,[2],3.45 µM
same,TGI,[2],12.6 µM
same,GI50,[3],12.8 µM
same,TGI,[3],31.9 µM
same,GI50,[4],2.25 µM
same,TGI,[4],5.46 µM
same,GI50,[5],2.94 µM
same,TGI,[5],8.76 µM
same,GI50,[6],3.54 µM
same,TGI,[6],12.5 µM
same,GI50,[7],1.44 µM
same,TGI,[7],6.91 µM
same,GI50,[8],2.75 µM
same,TGI,[8],7.24 µM
same,GI50,[9],2.35 µM
same,TGI,[9],6.78 µM
same,GI50,[10],5.37 µM
same,TGI,[10],18.8 µM
same,GI50,[53],3.54 µM
same,TGI,[53],9.77 µM
same,GI50,[11],2.35 µM
same,TGI,[11],5.73 µM
same,GI50,[12],2.42 µM
same,TGI,[12],7.05 µM
same,GI50,[13],5.95 µM
same,TGI,[13],34.5 µM
same,GI50,[14],2.87 µM
same,TGI,[14],7.46 µM
same,GI50,[15],2.55 µM
same,TGI,[15],6.16 µM
same,GI50,[16],3.99 µM
same,TGI,[16],47.5 µM
same,GI50,[54],2.28 µM
same,TGI,[54],5.2 µM
same,GI50,[18],2.16 µM
same,TGI,[18],13.1 µM
same,GI50,[19],3.07 µM
same,TGI,[19],11 µM
same,GI50,[21],2.7 µM
same,TGI,[21],7.99 µM
same,GI50,[22],3.23 µM
same,TGI,[22],11.8 µM
same,GI50,[23],2.06 µM
same,TGI,[23],16.5 µM
same,GI50,[25],1.83 µM
same,TGI,[25],4.07 µM
same,GI50,[26],1.49 µM
same,TGI,[26],6.88 µM
same,GI50,[27],2.44 µM
same,TGI,[27],5.53 µM
same,GI50,[28],2.94 µM
same,TGI,[28],8.62 µM
same,GI50,[55],3.18 µM
same,TGI,[55],11.2 µM
same,GI50,[56],1.69 µM
same,TGI,[56],3.19 µM
same,GI50,[29],3.68 µM
same,TGI,[29],> 100 µM
same,GI50,[30],2.03 µM
same,TGI,[30],5.04 µM
same,GI50,[31],3.15 µM
same,TGI,[31],12.7 µM
same,GI50,[32],3.53 µM
same,TGI,[32],10.4 µM
same,GI50,[33],3.32 µM
same,TGI,[33],14.8 µM
same,GI50,[34],2.93 µM
same,TGI,[34],9.49 µM
same,GI50,[36],1.86 µM
same,TGI,[36],3.69 µM
same,GI50,[37],2.76 µM
same,TGI,[37],10 µM
same,GI50,[38],2.76 µM
same,TGI,[38],7.5 µM
same,GI50,[39],2.74 µM
same,TGI,[39],6.88 µM
same,GI50,[40],2.6 µM
same,TGI,[40],7.23 µM
same,GI50,[42],3.44 µM
same,TGI,[42],13.1 µM
same,GI50,[43],12.7 µM
same,TGI,[43],26.4 µM
same,GI50,[44],2.38 µM
same,TGI,[44],6.39 µM
same,GI50,[45],3.92 µM
same,TGI,[45],19.1 µM
same,GI50,[46],10.2 µM
same,TGI,[46],31.8 µM
same,GI50,[57],0.521 µM
same,TGI,[57],5.81 µM
same,GI50,[58],2.63 µM
same,TGI,[58],7.74 µM
same,GI50,[47],2.5 µM
same,TGI,[47],9.01 µM
same,GI50,[48],2.34 µM
same,TGI,[48],5.43 µM
same,GI50,[49],1.9 µM
same,TGI,[49],4.35 µM
same,GI50,[50],10.7 µM
same,TGI,[50],24.2 µM
same,GI50,[51],1.91 µM
same,TGI,[51],4.37 µM
same,GI50,[52],1.74 µM
same,TGI,[52],3.63 µM
